This passage reports ED50 and sedative activity results from patent publication US3963706A, “Sulphamoylphenyl-imidazolidinones” (Ed. Geistlich Sohne A.G. fur Chemische Industrie, priority 1972, dated 1976).

SMILES strings stand for the structures.

Series [1] relates to Petit Mal. In words: Cardiazol shock test. The series is classed as in vivo. Particulars: species not given. The text has this: (§1) In general, the majority of the available antiepileptic drugs are active against either Grand Mal or Petit Mal epilepsy but not against both forms.
(§2) As mentioned above, the compounds according to the present invention show interesting activity against both Grand Mal and Petit Mal forms of epilepsy. This activity is indicated respectively by the electro shock test and the Cardiazol shock test.

Series [2] relates to Grand Mal. In words: Electro shock test, mouse. The series is classed as in vivo.
Text: as §1, §2

For series [3], the system named is Grand Mal. In words: Electro shock test, rat. The series is classed as in vivo.
Text: as §1, §2

The format of series [4] is in vivo. As to conditions: up to 500 mg/kg. The text has this: It will be noted that the ratio of ED50 /LD50 for the compounds according to the invention is particularly favourable.

As usually defined, the ED50 is the dose at which the effect has come halfway, by size or by number of responders. Lower therefore signals greater potency.

As for `NS(=O)(=O)c1ccc(N2CN(c3ccccc3)CC2=O)c(F)c1` [Example 2, 1-Phenyl-3-(2-fluoro-4-sulphamoylphenyl)-imidazolidin-4-one], the ED50 worked out at 50 mg/kg in series [1], 10 mg/kg in series [2] and 10 mg/kg in series [3].
As to `NS(=O)(=O)c1ccc(N2CN(c3ccccc3)CC2=O)c(Cl)c1` [Example 3, 1-Phenyl-3-(2-Chloro-4-sulphamoylphenyl)-imidazolidin-4-one], the values for the ED50 in series [1], in series [2] and in series [3] were 50 mg/kg, 1 mg/kg and 5 mg/kg, respectively. In addition, in series [4], the sedative activity entry is “virtually no sedative activity”.
Consider `NS(=O)(=O)c1ccc(N2CN(c3ccccc3)CC2=O)c(Br)c1` [Example 5, 1-Phenyl-3-(2-bromo-4-sulphamoylphenyl)imidazolidin-4-one], for which the ED50 is 50 mg/kg in series [1], 5 mg/kg in series [2] and 5 to 10 mg/kg in series [3].
The matching figures for `NS(=O)(=O)c1ccc(N2C(=O)CN(c3ccccc3)C2=O)c(Cl)c1` [Example 8, 1-Phenyl-3-(2-chloro-4-sulphamoylphenyl)-hydantoin]: 100 mg/kg, 5 mg/kg and 10 mg/kg.
Consider `CC1C(=O)N(c2ccc(S(N)(=O)=O)cc2Cl)CN1c1ccccc1` (stereo not drawn) [Example 18, 5-Methyl-1-phenyl-3-(2-chloro-4-sulphamoylphenyl)-imidazolidin-4-one], for which the median effective dose (ED50) in series [1] is 50 mg/kg; in series [3] it was 10 mg/kg.
Take `NS(=O)(=O)c1ccc(N2CN(C3CCCCC3)CC2=O)c(Cl)c1` [Example 19, 1-Cyclohexyl-3-(2-chloro-4-sulphamoylphenyl)-imidazolidin-4-one]: the results for the ED50 in series [1], in series [2] and in series [3] were 200 mg/kg, 10 mg/kg and 25 mg/kg, respectively.
